Test results taken from ChEMBL document CHEMBL1201862, “PubChem BioAssay data set” (2004).
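Briefly, cells in 96-well plates were exposed to five compound concentrations for 48 h, and endpoints were estimated by linear interpolation. GI50 marks 50% less growth.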 Active and inactive are the calls of the source. Rule as the data show it: active = GI50 up to about 1.1 µM and inactive = higher.

Legend:
Test in all cases: NCI tumour cell line growth inhibition, 48 h
MDA-MB-231 = test system: MDA-MB-231
OVCAR-4 = test system: OVCAR-4
HOP-62 = test system: HOP-62
UACC-257 = test system: UACC-257
NCI-H460 = test system: NCI-H460
SK-MEL-28 = test system: SK-MEL-28
CAKI-1 = test system: CAKI-1
M14 = test system: M14
RXF 393 = test system: RXF 393
SW-620 = test system: SW-620
NCI-H23 = test system: NCI-H23
Hs-578T = test system: Hs-578T
PC-3 = test system: PC-3
TK-10 = test system: TK-10
IGROV-1 = test system: IGROV-1
SNB-75 = test system: SNB-75
NCI/ADR-RES = test system: NCI/ADR-RES
MDA-MB-435 = test system: MDA-MB-435
NCI-H226 = test system: NCI-H226
SF-268 = test system: SF-268
LOX IMVI = test system: LOX IMVI
SN12C = test system: SN12C
A549 = test system: A549
HT-29 = test system: HT-29
CCRF-CEM = test system: CCRF-CEM
HOP-92 = test system: HOP-92
KM12 = test system: KM12
EKVX = test system: EKVX
SNB-19 = test system: SNB-19
UACC-62 = test system: UACC-62
NCI-H522 = test system: NCI-H522
ACHN = test system: ACHN
786-0 = test system: 786-0
BT-549 = test system: BT-549
SF-539 = test system: SF-539
OVCAR-3 = test system: OVCAR-3
SK-MEL-5 = test system: SK-MEL-5
SK-MEL-2 = test system: SK-MEL-2
Malme-3M = test system: Malme-3M
MOLT-4 = test system: MOLT-4
HCT-15 = test system: HCT-15
HL-60 = test system: HL-60
OVCAR-8 = test system: OVCAR-8
MCF7 = test system: MCF7
DU-145 = test system: DU-145
U-251 = test system: U-251
K562 = test system: K562
COLO 205 = test system: COLO 205
T47D = test system: T47D
OVCAR-5 = test system: OVCAR-5
MDA-N = test system: MDA-N
HCC 2998 = test system: HCC 2998
SF-295 = test system: SF-295
UO-31 = test system: UO-31
RPMI-8226 = test system: RPMI-8226
SK-OV-3 = test system: SK-OV-3
SR = test system: SR
HCT-116 = test system: HCT-116

Compound: N=C(N)NS(=O)(=O)c1ccc(NNc2c3ccccc3nc3ccccc23)cc1
- GI50 (MDA-MB-231): 15.7 µM (inactive)
- GI50 (OVCAR-4): 4.85 µM (inactive)
- GI50 (HOP-62): 6.87 µM (inactive)
- GI50 (UACC-257): 20 µM (inactive)
- GI50 (NCI-H460): 2.7 µM (inactive)
- GI50 (SK-MEL-28): 13.8 µM (inactive)
- GI50 (CAKI-1): 15.8 µM (inactive)
- GI50 (M14): 12.8 µM (inactive)
- GI50 (RXF 393): 12.9 µM (inactive)
- GI50 (SW-620): 9.31 µM (inactive)
- GI50 (NCI-H23): 9.29 µM (inactive)
- GI50 (Hs-578T): 23.9 µM (inactive)
- GI50 (PC-3): 8.75 µM (inactive)
- GI50 (TK-10): 16.4 µM (inactive)
- GI50 (IGROV-1): 15.2 µM (inactive)
- GI50 (SNB-75): 16.5 µM (inactive)
- GI50 (NCI/ADR-RES): 26.4 µM (inactive)
- GI50 (MDA-MB-435): 16.2 µM (inactive)
- GI50 (NCI-H226): 1.08 µM (active)
- GI50 (SF-268): 10.4 µM (inactive)
- GI50 (LOX IMVI): 3.59 µM (inactive)
- GI50 (SN12C): 4.23 µM (inactive)
- GI50 (A549): 9.1 µM (inactive)
- GI50 (HT-29): 7.28 µM (inactive)
- GI50 (CCRF-CEM): 1.23 µM (inactive)
- GI50 (HOP-92): 2.96 µM (inactive)
- GI50 (KM12): 11.2 µM (inactive)
- GI50 (EKVX): 10.6 µM (inactive)
- GI50 (SNB-19): 8.34 µM (inactive)
- GI50 (UACC-62): 11.9 µM (inactive)
- GI50 (NCI-H522): 3.86 µM (inactive)
- GI50 (ACHN): 3.63 µM (inactive)
- GI50 (786-0): 10.1 µM (inactive)
- GI50 (BT-549): 1.18 µM (inactive)
- GI50 (SF-539): 14.3 µM (inactive)
- GI50 (OVCAR-3): 4.04 µM (inactive)
- GI50 (SK-MEL-5): 9.31 µM (inactive)
- GI50 (SK-MEL-2): 18.2 µM (inactive)
- GI50 (Malme-3M): 17.3 µM (inactive)
- GI50 (MOLT-4): 0.472 µM (active)
- GI50 (HCT-15): 18.6 µM
- GI50 (HL-60): 4.49 µM (inactive)
- GI50 (OVCAR-8): 6.38 µM (inactive)
- GI50 (MCF7): 2.48 µM (inactive)
- GI50 (DU-145): 2.58 µM (inactive)
- GI50 (U-251): 5.97 µM (inactive)
- GI50 (K562): 6.04 µM (inactive)
- GI50 (COLO 205): 12.6 µM (inactive)
- GI50 (T47D): 5.73 µM (inactive)
- GI50 (OVCAR-5): 17.6 µM (inactive)
- GI50 (MDA-N): 13.2 µM (inactive)
- GI50 (HCC 2998): 12.4 µM (inactive)
- GI50 (SF-295): 13.8 µM (inactive)
- GI50 (UO-31): 13.6 µM (inactive)
- GI50 (RPMI-8226): 12.6 µM (inactive)
- GI50 (SK-OV-3): 11.1 µM (inactive)
- GI50 (SR): 0.596 µM (active)
- GI50 (HCT-116): 8.34 µM (inactive)

Compound: CC1(C)C2CCC1C(=O)[C@@]1(C=CC(=O)CC1)C2 (some centres undefined)
- GI50 (MDA-MB-231): > 100 µM (inactive)
- GI50 (OVCAR-4): > 100 µM (inactive)
- GI50 (HOP-62): > 100 µM (inactive)
- GI50 (UACC-257): > 100 µM (inactive)
- GI50 (NCI-H460): > 100 µM (inactive)
- GI50 (SK-MEL-28): 43.1 µM (inactive)
- GI50 (M14): > 100 µM (inactive)
- GI50 (RXF 393): > 100 µM (inactive)
- GI50 (SW-620): > 100 µM (inactive)
- GI50 (NCI-H23): > 100 µM (inactive)
- GI50 (Hs-578T): > 100 µM (inactive)
- GI50 (PC-3): > 100 µM (inactive)
- GI50 (TK-10): > 100 µM (inactive)
- GI50 (IGROV-1): > 100 µM (inactive)
- GI50 (SNB-75): 61.1 µM (inactive)
- GI50 (NCI/ADR-RES): > 100 µM (inactive)
- GI50 (MDA-MB-435): > 100 µM (inactive)
- GI50 (NCI-H226): > 100 µM (inactive)
- GI50 (SF-268): > 100 µM (inactive)
- GI50 (LOX IMVI): > 100 µM (inactive)
- GI50 (SN12C): > 100 µM (inactive)
- GI50 (A549): > 100 µM (inactive)
- GI50 (HT-29): > 100 µM (inactive)
- GI50 (CCRF-CEM): > 100 µM (inactive)
- GI50 (HOP-92): > 100 µM (inactive)
- GI50 (KM12): > 100 µM (inactive)
- GI50 (EKVX): > 100 µM (inactive)
- GI50 (SNB-19): > 100 µM (inactive)
- GI50 (UACC-62): > 100 µM (inactive)
- GI50 (NCI-H522): > 100 µM (inactive)
- GI50 (ACHN): > 100 µM (inactive)
- GI50 (786-0): > 100 µM (inactive)
- GI50 (BT-549): > 100 µM (inactive)
- GI50 (SF-539): > 100 µM (inactive)
- GI50 (OVCAR-3): > 100 µM (inactive)
- GI50 (SK-MEL-5): > 100 µM (inactive)
- GI50 (Malme-3M): > 100 µM (inactive)
- GI50 (MOLT-4): > 100 µM (inactive)
- GI50 (HCT-15): > 100 µM
- GI50 (HL-60): > 100 µM (inactive)
- GI50 (OVCAR-8): > 100 µM (inactive)
- GI50 (MCF7): > 100 µM (inactive)
- GI50 (DU-145): > 100 µM (inactive)
- GI50 (U-251): > 100 µM (inactive)
- GI50 (K562): > 100 µM (inactive)
- GI50 (COLO 205): > 100 µM (inactive)
- GI50 (T47D): > 100 µM (inactive)
- GI50 (OVCAR-5): > 100 µM (inactive)
- GI50 (MDA-N): > 100 µM (inactive)
- GI50 (HCC 2998): > 100 µM (inactive)
- GI50 (SF-295): > 100 µM (inactive)
- GI50 (UO-31): > 100 µM (inactive)
- GI50 (RPMI-8226): > 100 µM (inactive)
- GI50 (SK-OV-3): > 100 µM (inactive)
- GI50 (SR): > 100 µM (inactive)
- GI50 (HCT-116): > 100 µM (inactive)
